Results: ChEMBL document CHEMBL1201862, “PubChem BioAssay data set” (2004)
Active and inactive are the calls of the source.

What was measured:
[1] = molecular target: T1, RNA-binding protein pos-1 (Caenorhabditis elegans, UniProt G5EF15); assay: disruptors of C. elegans POS-1 RNA interaction – biochemical, fluorescence polarization, dose response (AID 1964);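 note: purified POS-1 fused to maltose binding protein made in E. coli; potency of compounds blocking POS-1 binding to fluorescent RNA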
T1 sequence (G5EF15 whole entry): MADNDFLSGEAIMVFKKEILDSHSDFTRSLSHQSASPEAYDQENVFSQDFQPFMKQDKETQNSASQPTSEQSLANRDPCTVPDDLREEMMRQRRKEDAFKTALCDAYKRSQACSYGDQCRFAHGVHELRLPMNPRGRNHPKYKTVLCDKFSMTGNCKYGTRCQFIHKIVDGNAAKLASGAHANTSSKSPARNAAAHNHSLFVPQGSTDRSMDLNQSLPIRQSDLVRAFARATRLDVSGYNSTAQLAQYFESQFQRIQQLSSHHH

[2] = molecular target: T2, Zinc finger protein mex-5 (Caenorhabditis elegans, UniProt Q9XUB2); assay: potency of MEX-5 RNA-binding blockers – biochemical, C. elegans, fluorescence polarization, dose response (AID 1960)
T2 sequence (Q9XUB2 whole entry): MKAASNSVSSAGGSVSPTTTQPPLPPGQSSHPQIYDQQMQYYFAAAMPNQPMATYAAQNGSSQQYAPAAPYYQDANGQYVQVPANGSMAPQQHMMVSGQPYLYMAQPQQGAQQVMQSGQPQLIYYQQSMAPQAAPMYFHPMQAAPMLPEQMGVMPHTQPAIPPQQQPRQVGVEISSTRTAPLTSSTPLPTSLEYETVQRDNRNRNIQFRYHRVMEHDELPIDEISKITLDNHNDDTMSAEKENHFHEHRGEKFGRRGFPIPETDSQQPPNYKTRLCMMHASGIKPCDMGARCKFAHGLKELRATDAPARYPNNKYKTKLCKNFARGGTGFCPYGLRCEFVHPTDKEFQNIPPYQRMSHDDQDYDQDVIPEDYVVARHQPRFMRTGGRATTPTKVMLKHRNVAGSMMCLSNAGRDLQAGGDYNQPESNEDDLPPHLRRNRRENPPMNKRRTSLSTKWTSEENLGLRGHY

[3] = molecular target: Beta-galactosidase (Escherichia coli, UniProt Q8VNN2); assay: PubChem AID 485352; format: functional
Sequence of Beta-galactosidase (Q8VNN2 whole entry): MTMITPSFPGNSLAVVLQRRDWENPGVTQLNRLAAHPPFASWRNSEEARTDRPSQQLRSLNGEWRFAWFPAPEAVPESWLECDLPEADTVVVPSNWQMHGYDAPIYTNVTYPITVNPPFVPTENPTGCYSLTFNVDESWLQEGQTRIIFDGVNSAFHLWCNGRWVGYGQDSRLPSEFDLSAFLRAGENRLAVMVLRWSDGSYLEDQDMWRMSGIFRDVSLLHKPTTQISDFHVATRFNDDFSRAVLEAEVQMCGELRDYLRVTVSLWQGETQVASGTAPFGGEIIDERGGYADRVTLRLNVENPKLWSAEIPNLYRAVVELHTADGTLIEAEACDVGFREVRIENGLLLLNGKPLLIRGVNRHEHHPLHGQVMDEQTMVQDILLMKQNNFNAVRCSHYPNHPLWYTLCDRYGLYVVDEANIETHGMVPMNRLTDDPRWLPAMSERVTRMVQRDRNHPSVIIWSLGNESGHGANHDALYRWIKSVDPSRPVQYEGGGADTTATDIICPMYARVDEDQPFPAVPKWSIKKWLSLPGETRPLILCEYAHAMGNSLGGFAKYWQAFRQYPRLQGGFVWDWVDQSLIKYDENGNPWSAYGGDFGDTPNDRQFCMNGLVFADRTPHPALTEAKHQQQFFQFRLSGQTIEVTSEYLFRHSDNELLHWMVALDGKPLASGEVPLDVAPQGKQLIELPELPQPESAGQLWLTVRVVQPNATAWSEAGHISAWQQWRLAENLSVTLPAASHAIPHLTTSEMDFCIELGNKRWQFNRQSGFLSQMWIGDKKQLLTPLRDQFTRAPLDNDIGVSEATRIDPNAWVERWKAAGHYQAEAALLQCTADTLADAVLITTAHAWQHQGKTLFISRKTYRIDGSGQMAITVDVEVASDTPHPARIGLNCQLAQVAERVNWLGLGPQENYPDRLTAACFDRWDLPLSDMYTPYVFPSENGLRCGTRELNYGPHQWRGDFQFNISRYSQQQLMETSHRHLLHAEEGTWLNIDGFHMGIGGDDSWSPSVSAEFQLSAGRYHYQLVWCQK

[4] = molecular target: T3, Type-1 angiotensin II receptor (Homo sapiens, UniProt P30556); assay: antagonism of angiotensin II type 1 receptor – cell-based, uHTS hits, selectivity assay for APJ receptor antagonist project, dose response (AID 463214); format: functional;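 note: antagonist potency against angiotensin II stimulated AT1 response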
T3 sequence (P30556 whole entry): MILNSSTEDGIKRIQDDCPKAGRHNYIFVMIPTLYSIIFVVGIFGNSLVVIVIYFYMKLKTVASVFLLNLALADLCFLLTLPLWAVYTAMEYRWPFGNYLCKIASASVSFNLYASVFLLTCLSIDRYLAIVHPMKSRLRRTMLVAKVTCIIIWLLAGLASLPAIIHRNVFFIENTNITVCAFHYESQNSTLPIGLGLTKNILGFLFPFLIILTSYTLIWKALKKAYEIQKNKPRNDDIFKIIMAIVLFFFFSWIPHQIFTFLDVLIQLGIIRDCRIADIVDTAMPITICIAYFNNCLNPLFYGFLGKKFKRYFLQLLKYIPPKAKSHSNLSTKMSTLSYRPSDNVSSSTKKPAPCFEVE

[5] = molecular target: T4, Hexokinase HKDC1 (Homo sapiens, UniProt Q2TB90); assay: activation of HKDC1 glucose phosphorylation – biochemical, W721R variant, dose response (AID 504730); format: functional
T4 sequence (Q2TB90 whole entry): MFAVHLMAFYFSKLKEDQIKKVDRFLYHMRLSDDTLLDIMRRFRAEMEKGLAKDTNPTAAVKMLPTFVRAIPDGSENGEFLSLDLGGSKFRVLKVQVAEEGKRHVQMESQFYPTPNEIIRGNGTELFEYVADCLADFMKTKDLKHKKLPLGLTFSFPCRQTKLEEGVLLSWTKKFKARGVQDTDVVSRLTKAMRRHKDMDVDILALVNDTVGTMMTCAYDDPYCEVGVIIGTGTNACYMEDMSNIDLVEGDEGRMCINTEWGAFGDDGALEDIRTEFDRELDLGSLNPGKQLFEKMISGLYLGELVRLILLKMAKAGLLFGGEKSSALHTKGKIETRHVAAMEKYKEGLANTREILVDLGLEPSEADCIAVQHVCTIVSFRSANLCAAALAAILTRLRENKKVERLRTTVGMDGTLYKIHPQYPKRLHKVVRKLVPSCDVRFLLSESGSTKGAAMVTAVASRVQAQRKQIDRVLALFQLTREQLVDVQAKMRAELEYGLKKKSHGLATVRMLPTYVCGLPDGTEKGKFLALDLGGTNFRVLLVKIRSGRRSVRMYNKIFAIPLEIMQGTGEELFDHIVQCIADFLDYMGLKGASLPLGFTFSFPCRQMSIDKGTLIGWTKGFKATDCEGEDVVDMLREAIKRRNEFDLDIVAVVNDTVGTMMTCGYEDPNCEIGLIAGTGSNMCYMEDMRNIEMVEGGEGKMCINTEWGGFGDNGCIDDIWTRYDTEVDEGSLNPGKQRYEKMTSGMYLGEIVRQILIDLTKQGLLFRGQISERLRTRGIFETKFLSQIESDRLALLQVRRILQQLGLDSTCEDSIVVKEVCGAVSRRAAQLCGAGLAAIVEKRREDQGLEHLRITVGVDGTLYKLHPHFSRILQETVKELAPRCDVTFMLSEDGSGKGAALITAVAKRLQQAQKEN

[6] = molecular target: T5, Hexokinase-1 (Homo sapiens, UniProt P19367); assay: HK1 enzyme activation by HKDC1 hits – biochemical, selectivity assay for HKDC1 activator project, dose response (AID 504762); format: functional
T5 sequence (P19367 whole entry): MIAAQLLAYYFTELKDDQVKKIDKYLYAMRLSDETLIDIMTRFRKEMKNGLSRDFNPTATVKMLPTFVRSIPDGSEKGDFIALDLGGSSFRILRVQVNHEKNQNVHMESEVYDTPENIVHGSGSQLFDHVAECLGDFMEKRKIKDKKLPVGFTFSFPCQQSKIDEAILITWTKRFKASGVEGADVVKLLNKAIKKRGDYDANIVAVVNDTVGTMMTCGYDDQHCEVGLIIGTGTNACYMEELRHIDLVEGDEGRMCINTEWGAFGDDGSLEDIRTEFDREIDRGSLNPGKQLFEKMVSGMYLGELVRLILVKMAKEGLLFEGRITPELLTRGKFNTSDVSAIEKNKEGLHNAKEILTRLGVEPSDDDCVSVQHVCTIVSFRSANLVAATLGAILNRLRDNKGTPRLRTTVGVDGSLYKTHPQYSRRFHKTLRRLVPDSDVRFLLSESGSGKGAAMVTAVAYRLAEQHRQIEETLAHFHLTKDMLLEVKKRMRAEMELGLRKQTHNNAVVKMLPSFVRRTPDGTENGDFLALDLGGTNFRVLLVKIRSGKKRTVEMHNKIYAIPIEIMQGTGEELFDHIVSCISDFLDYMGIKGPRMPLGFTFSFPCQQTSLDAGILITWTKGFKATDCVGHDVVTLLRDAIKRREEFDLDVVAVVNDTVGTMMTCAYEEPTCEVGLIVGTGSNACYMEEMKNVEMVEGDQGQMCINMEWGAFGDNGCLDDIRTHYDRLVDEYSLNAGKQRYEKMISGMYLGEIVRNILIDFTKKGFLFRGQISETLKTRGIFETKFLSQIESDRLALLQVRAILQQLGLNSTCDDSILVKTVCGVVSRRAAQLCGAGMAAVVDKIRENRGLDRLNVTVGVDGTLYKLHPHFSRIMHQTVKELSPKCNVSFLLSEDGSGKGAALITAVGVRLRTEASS

[7] = molecular target: T6, Endoribonuclease toxin MazF (Escherichia coli K-12, UniProt P0AE70); assay: activation of MazEF endoribonuclease cleavage – biochemical, fluorescence, single-stranded RNA substrate, uHTS hits, dose response (AID 588481); format: functional
T6 sequence (P0AE70 whole entry): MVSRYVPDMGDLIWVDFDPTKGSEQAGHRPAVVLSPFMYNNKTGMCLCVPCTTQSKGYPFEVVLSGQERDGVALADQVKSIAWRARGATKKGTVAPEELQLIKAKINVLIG

[8] = molecular target: T6, Endoribonuclease toxin MazF; assay: substrate-only fluorescence increase artefacts – biochemical, single-stranded RNase substrate, counter-screen for MazEF activator project, dose response (AID 588502); format: functional
[9] = tested on: Vero; assay: cells; format: functional; conditions: Chlorocebus sabaeus
[10] = molecular target: Hepatocyte nuclear factor 4-alpha (Homo sapiens, UniProt P41235); format: functional, cell-based;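 note: biochemical luminescence-based dose-response counterscreen measuring inhibition of HNF4 dimerization, run alongside a screen for blockers of ABHD5–perilipin-5 interaction; split luciferase complementation of HNF4 fusion proteins in cell lysate measuring dimerization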
Sequence of Hepatocyte nuclear factor 4-alpha (P41235 whole entry, the tested form may be a part): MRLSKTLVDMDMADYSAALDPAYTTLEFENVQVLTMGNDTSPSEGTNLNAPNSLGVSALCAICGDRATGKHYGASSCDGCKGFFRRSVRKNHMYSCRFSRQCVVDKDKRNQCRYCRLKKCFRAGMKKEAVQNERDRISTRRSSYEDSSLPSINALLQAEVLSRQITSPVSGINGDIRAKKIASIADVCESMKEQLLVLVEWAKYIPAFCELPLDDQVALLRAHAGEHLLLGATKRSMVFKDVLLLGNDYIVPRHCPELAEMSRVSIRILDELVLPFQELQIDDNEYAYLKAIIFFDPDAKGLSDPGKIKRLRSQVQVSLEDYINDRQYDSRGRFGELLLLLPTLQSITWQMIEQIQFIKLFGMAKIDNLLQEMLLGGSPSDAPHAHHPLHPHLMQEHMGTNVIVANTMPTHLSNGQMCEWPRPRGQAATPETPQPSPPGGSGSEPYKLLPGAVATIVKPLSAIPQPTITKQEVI

[11] = molecular target: Beta-lactamase (Salmonella choleraesuis (strain SC-B67), UniProt Q5J463); assay: Epi-absorbance-based counterscreen for selective VIM-2 inhibitors: dose response biochemical high throughput screening assay to identify inhibitors of TEM-1 serine-beta-lactamase.
Sequence of Beta-lactamase (Salmonella choleraesuis (strain SC-B67), UniProt Q5J463) (Q5J463 whole entry): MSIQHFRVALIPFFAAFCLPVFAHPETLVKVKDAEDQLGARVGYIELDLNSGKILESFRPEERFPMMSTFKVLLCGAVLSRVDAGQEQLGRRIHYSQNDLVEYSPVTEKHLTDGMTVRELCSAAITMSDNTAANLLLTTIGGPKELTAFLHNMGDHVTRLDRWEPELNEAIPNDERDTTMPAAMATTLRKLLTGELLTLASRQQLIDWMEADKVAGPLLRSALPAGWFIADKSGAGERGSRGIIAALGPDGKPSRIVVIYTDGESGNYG

[12] = molecular target: T7, Beta-lactamase (Pseudomonas aeruginosa, UniProt Q79MP6); assay: inhibition of IMP-1 beta-lactamase activity – biochemical, epi-absorbance, selectivity assay for VIM-2 inhibitor project, dose response (AID 1920)
T7 sequence (Q79MP6 whole entry): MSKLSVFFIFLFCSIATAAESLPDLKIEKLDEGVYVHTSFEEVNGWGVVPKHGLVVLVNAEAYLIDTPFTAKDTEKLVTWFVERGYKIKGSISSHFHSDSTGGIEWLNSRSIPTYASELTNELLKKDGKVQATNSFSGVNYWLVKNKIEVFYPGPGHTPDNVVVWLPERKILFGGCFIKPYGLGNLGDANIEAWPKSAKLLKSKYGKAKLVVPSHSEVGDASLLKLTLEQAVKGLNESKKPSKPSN

[13] = molecular target: T7, Beta-lactamase; assay: […] counterscreen for selective VIM-2 inhibitors: dose response biochemical high throughput screening assay to identify inhibitors of IMP-1 metallo-beta-lactamase.
[14] = molecular target: Tyrosine-protein phosphatase non-receptor type 11 (Homo sapiens, UniProt Q06124); assay: PTPN11 enzyme inhibitors – biochemical, selectivity assay for STEP inhibitor project, dose response (AID 602367); format: functional; conditions: read-out: IC50_Mean
Sequence of Tyrosine-protein phosphatase non-receptor type 11 (Q06124 whole entry): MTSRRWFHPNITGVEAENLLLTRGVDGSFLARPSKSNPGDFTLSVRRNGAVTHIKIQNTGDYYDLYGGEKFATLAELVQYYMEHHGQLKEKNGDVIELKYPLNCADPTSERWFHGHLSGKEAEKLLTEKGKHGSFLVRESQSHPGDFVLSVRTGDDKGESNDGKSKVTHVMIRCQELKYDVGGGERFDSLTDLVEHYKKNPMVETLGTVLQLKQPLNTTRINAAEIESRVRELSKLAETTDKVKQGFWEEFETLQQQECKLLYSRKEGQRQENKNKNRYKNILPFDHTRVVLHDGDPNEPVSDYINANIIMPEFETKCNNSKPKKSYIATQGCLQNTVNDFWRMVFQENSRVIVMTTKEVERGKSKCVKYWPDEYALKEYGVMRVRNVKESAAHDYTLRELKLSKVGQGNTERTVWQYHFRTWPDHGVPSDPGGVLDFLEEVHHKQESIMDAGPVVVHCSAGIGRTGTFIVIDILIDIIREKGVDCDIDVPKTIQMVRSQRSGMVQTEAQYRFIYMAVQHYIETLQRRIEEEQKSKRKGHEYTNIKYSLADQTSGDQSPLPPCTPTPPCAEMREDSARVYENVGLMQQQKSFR

[15] = molecular target: Tyrosine-protein phosphatase non-receptor type 5 (Homo sapiens, UniProt P54829); assay: PTPN5 enzyme inhibition – biochemical, fluorescence intensity, uHTS hits, confirmation (AID 602372); format: functional; conditions: read-out: IC50_Mean
Sequence of Tyrosine-protein phosphatase non-receptor type 5 (P54829 whole entry): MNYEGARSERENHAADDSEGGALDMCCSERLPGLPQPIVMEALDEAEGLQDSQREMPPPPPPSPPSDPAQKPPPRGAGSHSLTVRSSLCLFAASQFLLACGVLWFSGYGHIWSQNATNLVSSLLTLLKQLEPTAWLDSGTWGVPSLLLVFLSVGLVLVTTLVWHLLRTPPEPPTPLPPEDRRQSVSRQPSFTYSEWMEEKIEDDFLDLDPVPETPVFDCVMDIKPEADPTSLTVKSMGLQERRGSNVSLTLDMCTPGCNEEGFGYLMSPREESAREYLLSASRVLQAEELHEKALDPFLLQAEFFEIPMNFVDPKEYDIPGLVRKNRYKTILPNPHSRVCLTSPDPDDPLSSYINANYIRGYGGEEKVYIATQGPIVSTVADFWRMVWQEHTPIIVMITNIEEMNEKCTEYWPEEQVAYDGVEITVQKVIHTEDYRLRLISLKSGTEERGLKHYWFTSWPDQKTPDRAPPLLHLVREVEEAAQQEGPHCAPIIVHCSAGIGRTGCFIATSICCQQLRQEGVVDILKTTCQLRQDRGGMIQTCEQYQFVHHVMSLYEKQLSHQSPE

[16] = molecular target: Dual specificity protein phosphatase 3 (Homo sapiens, UniProt P51452); assay: VHR phosphatase inhibition, dose response, selectivity assay for STEP inhibitor project, biochemical (AID 602374); format: functional; conditions: read-out: IC50_Mean
Sequence of Dual specificity protein phosphatase 3 (P51452 whole entry): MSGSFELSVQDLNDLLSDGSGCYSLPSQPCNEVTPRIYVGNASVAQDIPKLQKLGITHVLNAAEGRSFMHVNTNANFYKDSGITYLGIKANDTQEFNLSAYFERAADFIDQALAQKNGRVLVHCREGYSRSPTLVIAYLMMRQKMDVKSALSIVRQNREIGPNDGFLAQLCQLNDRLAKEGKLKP

[17] = molecular target: T8, Tyrosine-protein phosphatase non-receptor type 22 (Homo sapiens, UniProt Q9Y2R2); assay: lymphoid phosphatase LYP inhibitors – biochemical, selectivity assay for STEP inhibitor project, dose response (AID 624241); format: functional
T8 sequence (Q9Y2R2 whole entry): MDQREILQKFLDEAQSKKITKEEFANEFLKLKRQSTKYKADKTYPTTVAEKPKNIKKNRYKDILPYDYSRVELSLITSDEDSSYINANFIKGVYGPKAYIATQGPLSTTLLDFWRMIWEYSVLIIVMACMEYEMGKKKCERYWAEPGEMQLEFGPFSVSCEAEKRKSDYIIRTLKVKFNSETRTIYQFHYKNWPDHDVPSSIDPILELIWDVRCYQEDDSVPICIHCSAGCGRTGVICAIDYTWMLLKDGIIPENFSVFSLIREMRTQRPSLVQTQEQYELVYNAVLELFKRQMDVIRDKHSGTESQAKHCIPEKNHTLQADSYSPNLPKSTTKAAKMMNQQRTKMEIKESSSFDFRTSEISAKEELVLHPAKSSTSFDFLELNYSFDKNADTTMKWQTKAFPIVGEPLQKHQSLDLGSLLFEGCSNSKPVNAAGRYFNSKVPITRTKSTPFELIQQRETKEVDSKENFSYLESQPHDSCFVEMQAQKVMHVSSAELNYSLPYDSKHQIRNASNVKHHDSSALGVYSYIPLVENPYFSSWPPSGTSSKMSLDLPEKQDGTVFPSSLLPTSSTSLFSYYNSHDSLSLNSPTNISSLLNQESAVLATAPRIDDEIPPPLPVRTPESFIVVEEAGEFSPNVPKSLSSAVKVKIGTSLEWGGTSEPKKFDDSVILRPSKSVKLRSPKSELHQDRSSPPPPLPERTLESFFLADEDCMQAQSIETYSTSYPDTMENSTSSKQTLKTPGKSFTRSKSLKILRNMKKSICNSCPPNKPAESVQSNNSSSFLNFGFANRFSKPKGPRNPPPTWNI

[18] = molecular target: Mu-type opioid receptor (Homo sapiens, UniProt P35372); format: functional, cell-based;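 note: U2OS cells with beta-arrestin recruitment to OPRM1 by beta-gal complementation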
Sequence of Mu-type opioid receptor (P35372 whole entry): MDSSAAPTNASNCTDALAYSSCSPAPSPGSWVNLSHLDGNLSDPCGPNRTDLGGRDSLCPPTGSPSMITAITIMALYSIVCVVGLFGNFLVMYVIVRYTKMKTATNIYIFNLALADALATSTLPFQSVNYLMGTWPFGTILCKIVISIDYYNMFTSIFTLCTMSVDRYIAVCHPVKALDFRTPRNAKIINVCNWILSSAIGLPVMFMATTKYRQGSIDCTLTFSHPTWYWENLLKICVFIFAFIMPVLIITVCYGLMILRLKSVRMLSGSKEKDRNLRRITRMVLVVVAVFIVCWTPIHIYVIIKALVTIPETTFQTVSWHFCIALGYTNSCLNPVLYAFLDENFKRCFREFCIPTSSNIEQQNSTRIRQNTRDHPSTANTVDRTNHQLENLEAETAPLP

[19] = molecular target: 5-hydroxytryptamine receptor 2A (Mus musculus, UniProt P35363); format: functional, cell-based;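 note: CHO-K1 cells with tagged receptor and beta-arrestin; agonist potency measured as compound-induced activation of the receptor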
Sequence of 5-hydroxytryptamine receptor 2A (P35363 whole entry): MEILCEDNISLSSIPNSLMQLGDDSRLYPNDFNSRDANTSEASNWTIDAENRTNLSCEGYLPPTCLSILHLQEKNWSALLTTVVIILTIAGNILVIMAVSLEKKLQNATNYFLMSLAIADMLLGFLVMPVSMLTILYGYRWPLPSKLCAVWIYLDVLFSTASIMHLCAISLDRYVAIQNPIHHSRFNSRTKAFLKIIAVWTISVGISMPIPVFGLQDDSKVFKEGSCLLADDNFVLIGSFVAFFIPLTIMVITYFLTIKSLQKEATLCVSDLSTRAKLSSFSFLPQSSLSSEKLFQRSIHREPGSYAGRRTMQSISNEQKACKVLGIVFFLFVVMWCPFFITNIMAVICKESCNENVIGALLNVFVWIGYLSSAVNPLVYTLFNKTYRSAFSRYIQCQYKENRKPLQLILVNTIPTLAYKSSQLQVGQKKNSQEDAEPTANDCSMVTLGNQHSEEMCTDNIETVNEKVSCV

`CC(=O)C1=C(c2cccc([N+](=O)[O-])c2)N(C(C)=O)n2c(C)nnc2S1` was tested, and the EC50 [1] was 44.2 µM (active), the EC50 [2] was > 300 µM (inconclusive) and the EC50 [3] was 15 µM (active). The IC50 [4] was 8.72 µM (active), the EC50 [5] was 8.32 µM (active) and the EC50 [6] was 6.54 µM (active). The EC50 [7] was 20.5 µM (inactive), the EC50 [8] was 45.2 µM (inactive) and the CC50 [9] was 24.4 µM (active). The IC50 [10] was 4.27 µM (active).
For `CCN(CC)C(=O)CSc1nc2ccc(NC(=O)CSc3nccn3C)cc2s1`, the IC50 [11] was > 59.6 µM (inactive), the IC50 [12] was > 59.6 µM (inactive) and the IC50 [13] was > 59.6 µM (inactive).
With `CCC(CC)c1nnc(NC(=O)c2cc(C(=O)OC)cc([N+](=O)[O-])c2)s1` the IC50 [14] was 2.28 µM (active), the IC50 [15] was 8.62 µM (active) and the IC50 [16] was 0.567 µM (active). The IC50 [17] was 75.6 µM (inactive).
With `COc1ccc(C)cc1NC(=O)CCN1CCN(c2ccccc2F)CC1` the EC50 [18] was 92.5 µM (inactive) and the EC50 [19] was 76.1 µM (inactive).
